Assays:
MCF-7 = experiment: MTT cell proliferation, tumor cell lines; type: cell-based; settings: Homo sapiens, MCF7, MCF-7, Breast adenocarcinoma, 96 hrs
Experimental: (§1) Culture conditions: The cell lines listed in Table 4 were used to characterize the cytotoxicity of ECO-04601 against human and animal tumor cell lines. […] Cells were passaged twice to three times per week. Viability was examined by staining with 0.25% trypan blue and only flasks where cell viability was >95% were used for this study. Cell lines amplification and plating: Tumor cells were seeded (1–3×10^3 cells per 100 μL) in 96-wells flat bottom microtiter plates and incubated at 37° C. and 5% CO2 for 16 hrs before treatment in drug-free medium supplemented with 10% serum. Evaluation of inhibitory activity on cell proliferation: Cells were incubated for 96 hrs with 6 log10-fold concentrations of the test substance starting at 10 μg/ml (20 μM). The test substance stock solution (5 mg/mL) was initially diluted at […] in medium supplemented with serum. Other concentrations were then obtained from 1/10 fold successive dilutions in the same supplemented medium. Cell survival was evaluated 96 h later by replacing the culture media with 150 μL fresh medium containing 10 mM 4-(2-hydroxyethyl)-1-piperazineethanesulfonic acid buffer, pH 7.4. Next, 50 μL of 2.5 mg/mL of 3-(4,5-dimethylthiazo-2-yl)-2,5-diphenyltetrazolium bromide (MTT) in phosphate buffer solution, pH 7.4, was added. After 3–4 h of incubation at 37° C., the medium and soluble MTT was removed, and 200 μL of dimethylsulfoxide was added to dissolve the precipitate of reduced MTT followed by addition of 25 μL glycine buffer (0.1 M glycine plus 0.1 M NaCl, pH 10.5). The absorbance was determined at 570 nm with a microplate reader.

SK-MEL 28^VEGF = experiment: MTT cell proliferation, tumor cell lines; type: cell-based; settings: Homo sapiens, Melanoma (expressing VEGF), 96 hrs
Experimental: as §1

SK-MEL 28 = experiment: MTT cell proliferation, tumor cell lines; type: cell-based; settings: Homo sapiens, SK-MEL 28, Melanoma, 96 hrs
Experimental: as §1

SK-MEL-1 = experiment: MTT cell proliferation, tumor cell lines; type: cell-based; settings: Homo sapiens, SK-MEL-1, Melanoma, 96 hrs
Experimental: as §1

P388 = experiment: MTT cell proliferation, tumor cell lines; type: cell-based; settings: Mus musculus, P388, Leukemia, 96 hrs
Experimental: as §1

Panc 96 = experiment: MTT cell proliferation, tumor cell lines; type: cell-based; settings: Homo sapiens, Panc 96, Pancreatic carcinoma, 96 hrs
Experimental: as §1

B16 (F10) = experiment: MTT cell proliferation, tumor cell lines; type: cell-based; settings: Mus musculus, Melanoma, 96 hrs
Experimental: as §1

I83 = experiment: MTT cell proliferation, tumor cell lines; type: cell-based; settings: Homo sapiens, I83, Leukemia, 96 hrs
Experimental: as §1

Panc 10.05 = experiment: MTT cell proliferation, tumor cell lines; type: cell-based; settings: Homo sapiens, Panc1005, Panc 10.05, Pancreatic carcinoma, 96 hrs
Experimental: as §1

K562 = experiment: MTT cell proliferation, tumor cell lines; type: cell-based; settings: Homo sapiens, K562, Leukemia myelogeneous, 96 hrs
Experimental: as §1

[1] = system: C6 glioblastoma cell-bearing mice; experiment: In vivo glioma model, treatment from day 10 after inoculation; design: species or system Mus musculus nude mice; settings: 20–30 mg/kg; versus vehicle-treated mice (FIG. 11)
Experimental: The aim of this study was to test whether ECO-04601 administered by i.p. route prevents or delays tumor growth in C6 glioblastoma cell-bearing mice, and to determine an effective dosage regimen.
Animal experiments were performed according to ethical guidelines of animal experimentation (Charte du comité d'éthique du CNRS, juillet 2003) and the English guidelines for the welfare of animals in experimental neoplasia (WORKMAN, P., […], P., BALKWILL, F., et al. (1998). United Kingdom Coordinating Committee on Cancer Research (UKCCCR) Guidelines for the welfare of animals in experimental neoplasia (Second Edition, July 1997; British Journal of Cancer 77:1–10). Any dead or apparently sick mice were promptly removed and replaced with healthy mice. Sick mice were euthanized upon removal from the cage. Animals were maintained in rooms under controlled conditions of temperature (23±2° C.), humidity (45±5%), photoperiodicity (12 hrs light/12 hrs dark) and air exchange. […] The cells were counted in a hemocytometer and their viability assessed by 0.25% trypan blue exclusion. […]
In a second series of experiments, treatment started at day 10 following inoculation of C6 cells when tumors became palpable (around 100 to 200 mm^3). […] Tumor volume was measured every second day until the end of the treatment using callipers. […]

Which results are given for `CC(C)=CCC/C(C)=C/CC/C(C)=C/CN1C(=O)c2cccc(O)c2Nc2c(O)cc(O)cc21` [ECO-04601, 10-farnesyl-4,6,8-trihydroxy-dibenzodiazepin-11-one]?
IC50 (MCF-7): 9.7 µM; IC50 (SK-MEL 28^VEGF): 14.3 µM; IC50 (SK-MEL 28): 14 µM; IC50 (SK-MEL-1): 14.1 µM; IC50 (P388): 10.9 µM; IC50 (Panc 96): 12.5 µM; IC50 (B16 (F10)): 11.4 µM; IC50 (I83): 2.7 µM; IC50 (Panc 10.05): 14.2 µM; IC50 (K562): 8.6 µM; Histological analysis of tumor sections [1]: cell density was decreased and the nuclei of remaining tumor cells appeared larger and pycnotic
